Test results from patent US12121521B2, “Uses of salt-inducible kinase (SIK) inhibitors for treating osteoporosis” (The General Hospital Corporation, priority 2016, dated 2024).

Tests used:
Assay in all cases: ScanEDGE kinase panel (DiscoverX)
Assay type in all cases: binding
PIM3 = biological target: T1, PIM3 (Homo sapiens, UniProt Q86V86); conditions: read-out: % of control activity at 71 nM
T1 construct: T7 phage fusion (most kinases) or DNA tag for qPCR (kinases made in HEK-293); purchased DiscoverX; host or cells: E. coli BL21-derived host (T7 phage) or HEK-293
Description: (§1) ScanEDGE kinase assays paneling specificity across a panel of 96 representative kinases were performed by DiscoverX (Fremont, CA). For most assays, kinase-tagged T7 phage strains were grown in parallel in 24-well blocks in an E. coli host derived from the BL21 strain. Bacteria were grown to log phase and infected with T7 phage from frozen stock (MOI=0.4) and incubated with shaking at 32° C. until lysis (90-150 minutes). The lysates were centrifuged (6000×g) and filtered (0.2 μm) to remove cell debris. The remaining kinases were produced in HEK-293 cells and subsequently tagged with DNA for qPCR detection. […] The liganded beads were blocked with excess biotin and washing with blocking buffer (SeaBlock (Pierce), 1% BSA, 0.05% Tween 20, 1 mM DTT) to remove unbound ligand and to reduce non-specific phage binding. […] Test compounds were prepared as 40× stocks in 100% DMSO and directly diluted into the assay. All reactions were performed in polypropylene 384 well plates in a final volume of 40 μl. […] The kinase concentration in the eluates was measured by qPCR.

RIPK2 = biological target: T2, RIPK2 (Homo sapiens, UniProt O43353); conditions: read-out: % of control activity at 71 nM
T2 construct: T7 phage fusion (most kinases) or DNA tag after HEK-293 expression; purchased DiscoverX (Fremont, CA), ScanEDGE; host or cells: T7 phage in E. coli BL21-derived host, or HEK-293
Description: as §1

ALK = biological target: T3, ALK (Homo sapiens, UniProt Q9UM73); conditions: read-out: % of control activity at 71 nM
T3 construct: T7 phage fusion (most kinases) or DNA tag for qPCR (HEK-293-made kinases); purchased DiscoverX (Fremont, CA); host or cells: E. coli BL21-derived host (T7 phage) or HEK-293
Description: as §1

BRAF = biological target: T4, BRAF (Homo sapiens, UniProt P15056); conditions: read-out: % of control activity at 71 nM
T4 construct: T7 phage fusion (most kinases) or DNA tag for qPCR (HEK-293-made kinases); purchased DiscoverX (Fremont, CA); host or cells: E. coli BL21-derived host (T7 phage) or HEK-293
Description: as §1

TGFBR1 = biological target: T5, TGFBR1 (Homo sapiens, UniProt P36897); conditions: read-out: % of control activity at 71 nM
T5 construct: T7 phage fusion (most kinases) or DNA tag after HEK-293 expression; purchased DiscoverX (Fremont, CA), ScanEDGE; host or cells: T7 phage in E. coli BL21-derived host, or HEK-293
Description: as §1

JNK2 = biological target: T6, JNK2 (Homo sapiens, UniProt P45984); conditions: read-out: % of control activity at 71 nM
T6 construct: T7 phage fusion (most kinases) or DNA tag for qPCR (HEK-293-made kinases); purchased DiscoverX; host or cells: E. coli BL21-derived host (T7 phage) or HEK-293
Description: as §1

AURKA = biological target: T7, AURKA (Homo sapiens, UniProt O14965); conditions: read-out: % of control activity at 71 nM
T7 construct: T7 phage fusion (most kinases) or DNA tag for qPCR (HEK-293-made kinases); purchased DiscoverX (Fremont, CA); host or cells: E. coli BL21-derived host (T7 phage) or HEK-293
Description: as §1

TYK2 = biological target: T8, TYK2 (Homo sapiens, UniProt P29597); conditions: read-out: % of control activity at 71 nM
T8 construct: T7 phage fusion (most kinases) or DNA tag after HEK-293 expression; purchased DiscoverX (Fremont, CA), ScanEDGE; host or cells: T7 phage in E. coli BL21-derived host, or HEK-293
Description: as §1

IKK-alpha = biological target: T9, IKK-alpha (Homo sapiens, UniProt O15111); conditions: read-out: % of control activity at 71 nM
T9 construct: T7 phage fusion (most kinases) or DNA tag for qPCR (HEK-293-made kinases); purchased DiscoverX; host or cells: E. coli BL21-derived host (T7 phage) or HEK-293
Description: as §1

MARK3 = biological target: T10, MARK3 (Homo sapiens, UniProt P27448); conditions: read-out: % of control activity at 71 nM
T10 construct: T7 phage fusion (most kinases) or DNA tag for qPCR (HEK-293-made kinases); purchased DiscoverX; host or cells: E. coli BL21-derived host (T7 phage) or HEK-293
Description: as §1

QSK (SIK3) = biological target: T11, QSK (SIK3) (Homo sapiens, UniProt Q9Y2K2); conditions: QSK refers to SIK3, read-out: % of control activity at 71 nM
T11 construct: T7 phage fusion (most kinases) or DNA tag after HEK-293 expression; purchased DiscoverX (Fremont, CA), ScanEDGE; host or cells: T7 phage in E. coli BL21-derived host, or HEK-293
Description: as §1

CSNK1G2 = biological target: T12, CSNK1G2 (Homo sapiens, UniProt P78368); conditions: read-out: % of control activity at 71 nM
T12 construct: T7 phage fusion (most kinases) or DNA tag for qPCR (HEK-293-made kinases); purchased DiscoverX (Fremont, CA); host or cells: E. coli BL21-derived host (T7 phage) or HEK-293
Description: as §1

PDPK1 = biological target: T13, PDPK1 (Homo sapiens, UniProt O15530); conditions: read-out: % of control activity at 71 nM
T13 construct: T7 phage fusion (most kinases) or DNA tag for qPCR (kinases made in HEK-293); purchased DiscoverX; host or cells: E. coli BL21-derived host (T7 phage) or HEK-293
Description: as §1

KIT = biological target: T14, KIT (Homo sapiens, UniProt P10721); conditions: read-out: % of control activity at 71 nM
T14 construct: T7 phage fusion (most kinases) or DNA tag for qPCR (HEK-293-made kinases); purchased DiscoverX; host or cells: E. coli BL21-derived host (T7 phage) or HEK-293
Description: as §1

TIE2 = biological target: T15, TIE2 (Homo sapiens, UniProt Q02763); conditions: read-out: % of control activity at 71 nM
T15 construct: T7 phage fusion (most kinases) or DNA tag after HEK-293 expression; purchased DiscoverX (Fremont, CA), ScanEDGE; host or cells: T7 phage in E. coli BL21-derived host, or HEK-293
Description: as §1

PAK1 = biological target: T16, PAK1 (Homo sapiens, UniProt Q13153); conditions: read-out: % of control activity at 71 nM
T16 construct: T7 phage fusion (most kinases) or DNA tag for qPCR (kinases made in HEK-293); purchased DiscoverX; host or cells: E. coli BL21-derived host (T7 phage) or HEK-293
Description: as §1

YANK3 = biological target: T17, YANK3 (Homo sapiens, UniProt Q86UX6); conditions: read-out: % of control activity at 71 nM
T17 construct: T7 phage fusion (most kinases) or DNA tag after HEK-293 expression; purchased DiscoverX (Fremont, CA), ScanEDGE; host or cells: T7 phage in E. coli BL21-derived host, or HEK-293
Description: as §1

FGFR2 = biological target: T18, FGFR2 (Homo sapiens, UniProt P21802); conditions: read-out: % of control activity at 71 nM
T18 construct: T7 phage fusion (most kinases) or DNA tag for qPCR (HEK-293-made kinases); purchased DiscoverX; host or cells: E. coli BL21-derived host (T7 phage) or HEK-293
Description: as §1

GSK3B = biological target: T19, GSK3B (Homo sapiens, UniProt P49841); conditions: read-out: % of control activity at 71 nM
T19 construct: T7 phage fusion (most kinases) or DNA tag for qPCR (HEK-293-made kinases); purchased DiscoverX; host or cells: E. coli BL21-derived host (T7 phage) or HEK-293
Description: as §1

MKNK1 = biological target: T20, MKNK1 (Homo sapiens, UniProt Q9BUB5); conditions: read-out: % of control activity at 71 nM
T20 construct: T7 phage fusion (most kinases) or DNA tag for qPCR (kinases made in HEK-293); purchased DiscoverX; host or cells: E. coli BL21-derived host (T7 phage) or HEK-293
Description: as §1

CDK9 = biological target: T21, CDK9 (Homo sapiens, UniProt P50750); conditions: read-out: % of control activity at 71 nM
T21 construct: T7 phage fusion (most kinases) or DNA tag for qPCR (HEK-293-made kinases); purchased DiscoverX (Fremont, CA); host or cells: E. coli BL21-derived host (T7 phage) or HEK-293
Description: as §1

ERBB4 = biological target: T22, ERBB4 (Homo sapiens, UniProt Q15303); conditions: read-out: % of control activity at 71 nM
T22 construct: T7 phage fusion (most kinases) or DNA tag for qPCR (HEK-293-made kinases); purchased DiscoverX; host or cells: E. coli BL21-derived host (T7 phage) or HEK-293
Description: as §1

MAP3K4 = biological target: T23, MAP3K4 (Homo sapiens, UniProt Q9Y6R4); conditions: read-out: % of control activity at 71 nM
T23 construct: T7 phage fusion (most kinases) or DNA tag for qPCR (HEK-293-made kinases); purchased DiscoverX; host or cells: E. coli BL21-derived host (T7 phage) or HEK-293
Description: as §1

PIK3C2B = biological target: T24, PIK3C2B (Homo sapiens, UniProt O00750); conditions: read-out: % of control activity at 71 nM
T24 construct: T7 phage fusion (most kinases) or DNA tag for qPCR (kinases made in HEK-293); purchased DiscoverX; host or cells: E. coli BL21-derived host (T7 phage) or HEK-293
Description: as §1

PIM2 = biological target: T25, PIM2 (Homo sapiens, UniProt Q9P1W9); conditions: read-out: % of control activity at 71 nM
T25 construct: T7 phage fusion (most kinases) or DNA tag for qPCR (kinases made in HEK-293); purchased DiscoverX; host or cells: E. coli BL21-derived host (T7 phage) or HEK-293
Description: as §1

PLK1 = biological target: T26, PLK1 (Homo sapiens, UniProt P53350); conditions: read-out: % of control activity at 71 nM
T26 construct: T7 phage fusion (most kinases) or DNA tag for qPCR (kinases made in HEK-293); purchased DiscoverX; host or cells: E. coli BL21-derived host (T7 phage) or HEK-293
Description: as §1

DYRK1B = biological target: T27, DYRK1B (Homo sapiens, UniProt Q9Y463); conditions: read-out: % of control activity at 71 nM
T27 construct: T7 phage fusion (most kinases) or DNA tag for qPCR (HEK-293-made kinases); purchased DiscoverX (Fremont, CA); host or cells: E. coli BL21-derived host (T7 phage) or HEK-293
Description: as §1

ARK5 = biological target: T28, ARK5 (Homo sapiens, UniProt O60285); conditions: read-out: % of control activity at 71 nM
T28 construct: T7 phage fusion (most kinases) or DNA tag for qPCR (HEK-293-made kinases); purchased DiscoverX (Fremont, CA); host or cells: E. coli BL21-derived host (T7 phage) or HEK-293
Description: as §1

PKAC-alpha = biological target: T29, PKAC-alpha (Homo sapiens, UniProt P17612); conditions: read-out: % of control activity at 71 nM
T29 construct: T7 phage fusion (most kinases) or DNA tag for qPCR (kinases made in HEK-293); purchased DiscoverX; host or cells: E. coli BL21-derived host (T7 phage) or HEK-293
Description: as §1

PIK3CA = biological target: T30, PIK3CA (Homo sapiens, UniProt P42336); conditions: read-out: % of control activity at 71 nM
T30 construct: T7 phage fusion (most kinases) or DNA tag for qPCR (kinases made in HEK-293); purchased DiscoverX; host or cells: E. coli BL21-derived host (T7 phage) or HEK-293
Description: as §1

T30 sequence (P42336 whole entry, the tested form may be a part): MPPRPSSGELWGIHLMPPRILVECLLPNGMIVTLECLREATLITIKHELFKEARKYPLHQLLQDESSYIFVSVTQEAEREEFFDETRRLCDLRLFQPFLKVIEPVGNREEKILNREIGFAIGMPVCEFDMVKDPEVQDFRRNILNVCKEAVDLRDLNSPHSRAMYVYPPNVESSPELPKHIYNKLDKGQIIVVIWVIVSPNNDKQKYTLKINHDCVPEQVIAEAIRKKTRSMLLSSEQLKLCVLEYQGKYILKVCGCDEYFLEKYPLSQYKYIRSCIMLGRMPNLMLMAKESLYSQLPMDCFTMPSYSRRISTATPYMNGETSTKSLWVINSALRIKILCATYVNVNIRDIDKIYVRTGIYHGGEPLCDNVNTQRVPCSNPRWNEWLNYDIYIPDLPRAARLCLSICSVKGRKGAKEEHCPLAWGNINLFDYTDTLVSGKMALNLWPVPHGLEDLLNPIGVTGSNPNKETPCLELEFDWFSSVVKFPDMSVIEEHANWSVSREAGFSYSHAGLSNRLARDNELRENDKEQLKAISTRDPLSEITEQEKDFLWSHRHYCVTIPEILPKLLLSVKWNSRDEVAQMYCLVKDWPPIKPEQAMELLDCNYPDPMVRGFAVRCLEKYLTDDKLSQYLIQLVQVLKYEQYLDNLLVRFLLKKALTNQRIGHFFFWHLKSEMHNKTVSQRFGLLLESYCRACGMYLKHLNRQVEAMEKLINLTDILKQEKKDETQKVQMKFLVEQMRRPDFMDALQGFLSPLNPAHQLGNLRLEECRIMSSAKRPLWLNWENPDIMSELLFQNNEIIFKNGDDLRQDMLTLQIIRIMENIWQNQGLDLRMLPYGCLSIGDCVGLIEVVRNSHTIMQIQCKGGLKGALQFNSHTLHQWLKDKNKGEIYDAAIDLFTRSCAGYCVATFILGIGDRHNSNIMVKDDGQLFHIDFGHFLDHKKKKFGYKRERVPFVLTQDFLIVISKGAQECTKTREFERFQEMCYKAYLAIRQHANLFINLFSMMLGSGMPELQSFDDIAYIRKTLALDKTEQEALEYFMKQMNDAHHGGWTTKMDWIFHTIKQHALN
T7 sequence (O14965 whole entry, the tested form may be a part): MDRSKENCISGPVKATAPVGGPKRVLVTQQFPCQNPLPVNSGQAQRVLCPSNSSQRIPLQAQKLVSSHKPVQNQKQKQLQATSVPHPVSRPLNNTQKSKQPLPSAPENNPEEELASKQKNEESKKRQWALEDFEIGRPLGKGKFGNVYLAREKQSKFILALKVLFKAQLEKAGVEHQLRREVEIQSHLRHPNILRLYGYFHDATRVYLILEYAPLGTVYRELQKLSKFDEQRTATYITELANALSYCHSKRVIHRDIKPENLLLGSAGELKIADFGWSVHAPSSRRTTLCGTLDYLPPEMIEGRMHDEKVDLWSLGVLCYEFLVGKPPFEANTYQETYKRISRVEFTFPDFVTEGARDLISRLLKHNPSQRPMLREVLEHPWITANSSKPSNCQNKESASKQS
T4 sequence (P15056 whole entry, the tested form may be a part): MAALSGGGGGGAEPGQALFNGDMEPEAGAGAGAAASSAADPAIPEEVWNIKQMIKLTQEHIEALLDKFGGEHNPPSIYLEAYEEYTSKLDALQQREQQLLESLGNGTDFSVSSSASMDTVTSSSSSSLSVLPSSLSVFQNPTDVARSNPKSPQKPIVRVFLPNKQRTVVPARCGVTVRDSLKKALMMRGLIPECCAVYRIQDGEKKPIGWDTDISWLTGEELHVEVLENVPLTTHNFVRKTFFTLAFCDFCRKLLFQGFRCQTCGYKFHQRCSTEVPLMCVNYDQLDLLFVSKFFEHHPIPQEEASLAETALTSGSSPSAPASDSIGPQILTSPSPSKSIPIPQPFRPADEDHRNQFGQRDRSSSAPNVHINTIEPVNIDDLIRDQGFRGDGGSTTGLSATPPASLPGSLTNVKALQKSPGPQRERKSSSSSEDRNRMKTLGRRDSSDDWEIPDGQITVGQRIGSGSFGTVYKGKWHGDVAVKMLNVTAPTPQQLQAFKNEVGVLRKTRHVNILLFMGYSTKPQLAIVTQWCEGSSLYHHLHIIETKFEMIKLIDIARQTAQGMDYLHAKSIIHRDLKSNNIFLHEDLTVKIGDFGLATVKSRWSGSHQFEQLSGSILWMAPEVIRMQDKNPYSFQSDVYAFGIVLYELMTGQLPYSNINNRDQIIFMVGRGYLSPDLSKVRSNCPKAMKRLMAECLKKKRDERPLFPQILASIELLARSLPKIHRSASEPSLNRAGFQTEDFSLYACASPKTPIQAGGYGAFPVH
T18 sequence (P21802 22-821): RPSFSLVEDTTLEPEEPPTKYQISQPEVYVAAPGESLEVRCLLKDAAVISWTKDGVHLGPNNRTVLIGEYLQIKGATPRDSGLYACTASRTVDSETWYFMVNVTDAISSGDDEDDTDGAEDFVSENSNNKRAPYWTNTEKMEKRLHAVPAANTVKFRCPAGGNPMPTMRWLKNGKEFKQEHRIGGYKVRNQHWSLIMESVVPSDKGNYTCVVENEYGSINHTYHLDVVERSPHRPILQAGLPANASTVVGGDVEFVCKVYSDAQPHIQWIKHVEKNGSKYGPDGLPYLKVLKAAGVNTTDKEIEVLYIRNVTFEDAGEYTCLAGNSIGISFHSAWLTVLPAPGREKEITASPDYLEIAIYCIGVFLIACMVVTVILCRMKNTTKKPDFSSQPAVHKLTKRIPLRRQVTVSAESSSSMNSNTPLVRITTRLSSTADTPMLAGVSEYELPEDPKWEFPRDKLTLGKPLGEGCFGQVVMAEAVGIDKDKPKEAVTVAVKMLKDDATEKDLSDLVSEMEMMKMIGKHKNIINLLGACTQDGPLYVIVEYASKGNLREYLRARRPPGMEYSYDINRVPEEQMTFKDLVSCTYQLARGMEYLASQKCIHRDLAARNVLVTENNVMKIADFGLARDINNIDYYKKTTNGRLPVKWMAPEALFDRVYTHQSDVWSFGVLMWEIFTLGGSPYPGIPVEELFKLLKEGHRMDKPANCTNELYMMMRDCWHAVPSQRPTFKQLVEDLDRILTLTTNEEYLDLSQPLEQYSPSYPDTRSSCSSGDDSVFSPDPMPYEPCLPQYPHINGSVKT
T11 sequence (Q9Y2K2 whole entry, the tested form may be a part): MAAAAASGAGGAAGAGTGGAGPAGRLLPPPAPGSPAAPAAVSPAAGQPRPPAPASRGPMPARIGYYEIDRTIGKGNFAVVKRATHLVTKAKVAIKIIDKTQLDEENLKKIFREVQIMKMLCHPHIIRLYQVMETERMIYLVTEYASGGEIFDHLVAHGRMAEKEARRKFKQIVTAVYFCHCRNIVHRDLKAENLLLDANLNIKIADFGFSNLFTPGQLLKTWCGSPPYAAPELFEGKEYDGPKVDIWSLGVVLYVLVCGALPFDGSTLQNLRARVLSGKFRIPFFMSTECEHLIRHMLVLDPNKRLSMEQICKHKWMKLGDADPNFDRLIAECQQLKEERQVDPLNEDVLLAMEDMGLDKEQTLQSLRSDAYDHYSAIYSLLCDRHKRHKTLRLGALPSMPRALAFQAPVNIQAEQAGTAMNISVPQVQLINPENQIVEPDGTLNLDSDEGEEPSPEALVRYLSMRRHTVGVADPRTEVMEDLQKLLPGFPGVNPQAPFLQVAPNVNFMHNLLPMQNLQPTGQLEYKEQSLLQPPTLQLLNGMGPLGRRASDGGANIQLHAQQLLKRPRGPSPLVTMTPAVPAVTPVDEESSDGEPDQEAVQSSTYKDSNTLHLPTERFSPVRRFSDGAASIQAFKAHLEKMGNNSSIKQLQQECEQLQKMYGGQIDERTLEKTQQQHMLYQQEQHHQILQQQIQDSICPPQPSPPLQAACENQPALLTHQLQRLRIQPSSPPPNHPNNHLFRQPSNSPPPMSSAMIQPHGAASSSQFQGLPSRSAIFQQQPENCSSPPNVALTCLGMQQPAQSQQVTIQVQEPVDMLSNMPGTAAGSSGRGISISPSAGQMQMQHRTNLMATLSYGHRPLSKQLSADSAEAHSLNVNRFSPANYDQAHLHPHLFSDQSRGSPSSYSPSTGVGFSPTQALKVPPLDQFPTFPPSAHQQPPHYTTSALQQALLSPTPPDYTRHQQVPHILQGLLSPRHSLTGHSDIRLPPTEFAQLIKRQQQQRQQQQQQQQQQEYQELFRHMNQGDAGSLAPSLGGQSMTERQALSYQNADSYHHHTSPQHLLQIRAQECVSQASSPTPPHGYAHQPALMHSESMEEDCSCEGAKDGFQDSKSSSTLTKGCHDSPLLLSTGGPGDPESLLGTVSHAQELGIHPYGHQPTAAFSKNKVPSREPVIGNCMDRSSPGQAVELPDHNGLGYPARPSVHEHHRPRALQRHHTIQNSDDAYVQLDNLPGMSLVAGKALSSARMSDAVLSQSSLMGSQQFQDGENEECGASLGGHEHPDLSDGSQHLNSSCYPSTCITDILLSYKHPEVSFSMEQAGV
T25 sequence (Q9P1W9 whole entry, the tested form may be a part): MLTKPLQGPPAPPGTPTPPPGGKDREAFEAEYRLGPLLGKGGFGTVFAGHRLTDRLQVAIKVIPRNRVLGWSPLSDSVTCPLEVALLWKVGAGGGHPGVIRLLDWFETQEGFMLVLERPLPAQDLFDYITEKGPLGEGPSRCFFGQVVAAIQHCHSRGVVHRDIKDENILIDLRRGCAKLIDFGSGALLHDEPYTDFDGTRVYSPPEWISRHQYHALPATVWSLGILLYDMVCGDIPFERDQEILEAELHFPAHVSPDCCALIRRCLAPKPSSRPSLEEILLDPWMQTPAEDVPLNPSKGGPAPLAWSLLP

- remaining binding at 0.071 µM (PIM3): 84%
- remaining binding at 0.071 µM (RIPK2): 16%
- remaining binding at 0.071 µM (ALK): 23%
- remaining binding at 0.071 µM (BRAF): 66%
- remaining binding at 0.071 µM (TGFBR1): 90%
- remaining binding at 0.071 µM (JNK2): 89%
- remaining binding at 0.071 µM (AURKA): 12%
- remaining binding at 0.071 µM (TYK2): 49%
- remaining binding at 0.071 µM (IKK-alpha): 93%
- remaining binding at 0.071 µM (MARK3): 40%
- remaining binding at 0.071 µM (QSK (SIK3)): 5.3%
- remaining binding at 0.071 µM (CSNK1G2): 100%
- remaining binding at 0.071 µM (PDPK1): 55%
- remaining binding at 0.071 µM (KIT): 1.8%
- remaining binding at 0.071 µM (TIE2): 32%
- remaining binding at 0.071 µM (PAK1): 6.6%
- remaining binding at 0.071 µM (YANK3): 95%
- remaining binding at 0.071 µM (FGFR2): 8.9%
- remaining binding at 0.071 µM (GSK3B): 68%
- remaining binding at 0.071 µM (MKNK1): 76%
- remaining binding at 0.071 µM (CDK9): 88%
- remaining binding at 0.071 µM (ERBB4): 6.1%
- remaining binding at 0.071 µM (MAP3K4): 60%
- remaining binding at 0.071 µM (PIK3C2B): 100%
- remaining binding at 0.071 µM (PIM2): 97%
- remaining binding at 0.071 µM (PLK1): 100%
- remaining binding at 0.071 µM (DYRK1B): 93%
- remaining binding at 0.071 µM (ARK5): 77%
- remaining binding at 0.071 µM (PKAC-alpha): 100%
- remaining binding at 0.071 µM (PIK3CA): 84%
Compound: COc1ccc(N2C(=O)N(c3c(C)cccc3C)Cc3cnc(Nc4ccc(C5CCN(C)CC5)c(OC)c4)nc32)c(OC)c1 [YKL-05-093]
